{"source": "patent US20100297194A1", "about": "“FORMULATION FOR ORAL ADMINISTRATION OF APOPTOSIS PROMOTER” (priority 2009, published 2010)", "format_in_all_cases": "physicochemical", "key": {"[1]": {"assay": "drug solubility in ternary excipient systems (Example 2)", "set-up": "key: ✓: vehicle miscible, or drug fully dissolved in vehicle", "conditions": "10% salt, 20% free base", "description": "(§1) Solvents evaluated included Labrafil M 1944 CS™, Imwitor 742™ oleic acid, Capmul PG-8™, Capmul PG-12™, Lauroglycol 90™ and Phosal 53 MCT™. Surfactants evaluated included Tween™ 80, Cremophor RH40™, Gelucire 44/14™ and Labrasol™."}, "[2]": {"assay": "solubility in lipid solvents (Example 1)", "conditions": "ambient conditions, listed as ABT-263 bis-HCl salt", "experimental": "Solubility of ABT-263 parent (free base, crystalline Form I) and ABT-263 bis-HCl salt was tested in a variety of lipid solvents and solvent mixtures in ambient conditions. “PE-91” is Phosal 53 MCT™+ethanol, 9:1 by volume. “LOT-343” is Labrafil M 1944 CS™+oleic acid+Tween 80™, 30:40:30 by weight.\nIn some cases, indicated in Table 4 by an asterisk (*), solubility was initially high but precipitation occurred upon standing."}, "[3]": {"assay": "drug solubility in ternary excipient systems (Example 2)", "set-up": "key: ✓: vehicle miscible, or drug fully dissolved in vehicle; X: vehicle immiscible or miscible but turbid, or residual solids present (due to undissolved drug or precipitation)", "conditions": "10% salt, 20% free base", "description": "as §1"}}, "note": "Counter-ions that a name gives are not always drawn."}
{"compound": "CC1(C)CCC(c2ccc(Cl)cc2)=C(CN2CCN(c3ccc(C(=O)NS(=O)(=O)c4ccc(N[C@H](CCN5CCOCC5)CSc5ccccc5)c(S(=O)(=O)C(F)(F)F)c4)cc3)CC2)C1", "note": "[ABT-263 bis-HCl]", "values": [{"measurement": "ABT-263 solubility", "setting": "[1]; C8LL (Capmul PG-8/Labrafil M 1944 CS/Labrasol) 40:40:20 by weight", "value": "✓"}, {"measurement": "ABT-263 solubility", "setting": "[1]; C12LT (Capmul PG-12/Labrafil M 1944 CS/Tween 80) 30:40:30 by weight", "value": "✓"}, {"measurement": "ABT-263 solubility", "setting": "[1]; C12LT (Capmul PG-12/Labrafil M 1944 CS/Tween 80) 35:40:25 by weight", "value": "✓"}, {"measurement": "ABT-263 solubility", "setting": "[1]; C12LT (Capmul PG-12/Labrafil M 1944 CS/Tween 80) 40:30:30 by weight", "value": "✓"}, {"measurement": "ABT-263 solubility", "setting": "[1]; C12LT (Capmul PG-12/Labrafil M 1944 CS/Tween 80) 45:30:25 by weight", "value": "✓"}, {"measurement": "ABT-263 solubility", "setting": "[1]; ILC (Imwitor 742/Labrafil M 1944 CS/Cremophor RH40) 50:30:20 by weight, listed as ABT-263 bis-HCl salt", "value": "✓"}, {"measurement": "ABT-263 solubility", "setting": "[1]; ILC (Imwitor 742/Labrafil M 1944 CS/Cremophor RH40) 50:40:10 by weight, listed as ABT-263 bis-HCl salt", "value": "✓"}, {"measurement": "ABT-263 solubility", "setting": "[1]; ILC (Imwitor 742/Labrafil M 1944 CS/Cremophor RH40) 60:30:10 by weight, listed as ABT-263 bis-HCl salt", "value": "✓"}, {"measurement": "ABT-263 solubility", "setting": "[1]; ILL (Imwitor 742/Labrafil M 1944 CS/Labrasol) 40:40:20 by weight, listed as ABT-263 bis-HCl salt", "value": "✓"}, {"measurement": "ABT-263 solubility", "setting": "[1]; ILL (Imwitor 742/Labrafil M 1944 CS/Labrasol) 50:30:20 by weight, listed as ABT-263 bis-HCl salt", "value": "✓"}, {"measurement": "ABT-263 solubility", "setting": "[1]; ILL (Imwitor 742/Labrafil M 1944 CS/Labrasol) 50:40:10 by weight, listed as ABT-263 bis-HCl salt", "value": "✓"}, {"measurement": "ABT-263 solubility", "setting": "[1]; ILL (Imwitor 742/Labrafil M 1944 CS/Labrasol) 60:30:10 by weight, listed as ABT-263 bis-HCl salt", "value": "✓"}, {"measurement": "ABT-263 solubility", "setting": "[1]; LIT (Labrafil M 1944 CS/Imwitor 742/Tween 80) 30:40:30 by weight, listed as ABT-263 bis-HCl salt", "value": "✓"}, {"measurement": "ABT-263 solubility", "setting": "[1]; LIT (Labrafil M 1944 CS/Imwitor 742/Tween 80) 40:30:30 by weight, listed as ABT-263 bis-HCl salt", "value": "✓"}, {"measurement": "ABT-263 solubility", "setting": "[1]; LLL (Lauroglycol 90/Labrafil M 1944 CS/Labrasol) 40:40:20 by weight", "value": "✓"}, {"measurement": "ABT-263 solubility", "setting": "[1]; LLL (Lauroglycol 90/Labrafil M 1944 CS/Labrasol) 50:30:20 by weight", "value": "✓"}, {"measurement": "ABT-263 solubility", "setting": "[1]; LLL (Lauroglycol 90/Labrafil M 1944 CS/Labrasol) 50:40:10 by weight, listed as ABT-263 bis-HCl salt", "value": "✓"}, {"measurement": "ABT-263 solubility", "setting": "[1]; LLL (Lauroglycol 90/Labrafil M 1944 CS/Labrasol) 60:30:10 by weight, listed as ABT-263 bis-HCl salt", "value": "✓"}, {"measurement": "ABT-263 solubility", "setting": "[1]; LOT (Labrafil M 1944 CS/oleic acid/Tween 80) 30:40:30 by weight", "value": "✓"}, {"measurement": "ABT-263 solubility", "setting": "[1]; LOT (Labrafil M 1944 CS/oleic acid/Tween 80) 30:45:25 by weight", "value": "✓"}, {"measurement": "ABT-263 solubility", "setting": "[1]; LOT (Labrafil M 1944 CS/oleic acid/Tween 80) 40:30:30 by weight", "value": "✓"}, {"measurement": "ABT-263 solubility", "setting": "[1]; LOT (Labrafil M 1944 CS/oleic acid/Tween 80) 40:35:25 by weight", "value": "✓"}, {"measurement": "ABT-263 solubility", "setting": "[1]; OLL (oleic acid/Labrafil M 1944 CS/Labrasol) 40:40:20 by weight", "value": "✓"}, {"measurement": "ABT-263 solubility", "setting": "[1]; OLL (oleic acid/Labrafil M 1944 CS/Labrasol) 50:30:20 by weight", "value": "✓"}, {"measurement": "ABT-263 solubility", "setting": "[1]; OLL (oleic acid/Labrafil M 1944 CS/Labrasol) 50:40:10 by weight", "value": "✓"}, {"measurement": "ABT-263 solubility", "setting": "[1]; OLL (oleic acid/Labrafil M 1944 CS/Labrasol) 60:30:10 by weight", "value": "✓"}, {"measurement": "Solubility", "setting": "[2]; in Capmul MCM", "value": ">321", "unit": "mg/g"}, {"measurement": "Solubility", "setting": "[2]; in Capmul PG-8", "value": "<43", "unit": "mg/g"}, {"measurement": "Solubility", "setting": "[2]; in Capmul PG-12", "value": "<39", "unit": "mg/g"}, {"measurement": "Solubility", "setting": "[2]; in Captex 300", "value": "<52", "unit": "mg/g"}, {"measurement": "Solubility", "setting": "[2]; in Imwitor 742", "value": ">245", "unit": "mg/g"}, {"measurement": "Solubility", "setting": "[2]; in Labrafil M 1944 CS", "value": "<45", "unit": "mg/g"}, {"measurement": "Solubility", "setting": "[2]; in Labrafil M 2125 CS", "value": "<44", "unit": "mg/g"}, {"measurement": "Solubility", "setting": "[2]; in Labrasol", "value": ">292", "unit": "mg/g"}, {"measurement": "Solubility", "setting": "[2]; in Lipoid S75 MCT", "value": 48.9, "unit": "mg/g"}, {"measurement": "Solubility", "setting": "[2]; in Miglyol 810", "value": "<84", "unit": "mg/g"}, {"measurement": "Solubility", "setting": "[2]; in PE-91 (Phosal 53 MCT+ethanol 9:1 by volume)", "value": 89, "unit": "mg/g"}, {"measurement": "Solubility", "setting": "[2]; in PEG-400", "value": ">278", "unit": "mg/g"}, {"measurement": "Solubility", "setting": "[2]; in Tween 20", "value": ">176", "unit": "mg/g"}, {"measurement": "Solubility", "setting": "[2]; in Tween 80", "value": ">125", "unit": "mg/g"}, {"measurement": "Solubility", "setting": "[2]; in castor oil", "value": ">78.8", "unit": "mg/g"}, {"measurement": "Solubility", "setting": "[2]; in corn oil", "value": "<104", "unit": "mg/g"}, {"measurement": "Solubility", "setting": "[2]; in oleic acid", "value": "<498", "unit": "mg/g"}, {"measurement": "Solubility", "setting": "[2]; in poloxamer 124", "value": "<41", "unit": "mg/g"}, {"measurement": "Solubility", "setting": "[2]; in propylene glycol", "value": ">337", "unit": "mg/g"}, {"measurement": "Solubility", "setting": "[2]; in sesame oil", "value": "<80", "unit": "mg/g"}, {"measurement": "ABT-263 solubility", "setting": "[3]; C8LL (Capmul PG-8/Labrafil M 1944 CS/Labrasol) 50:30:20 by weight", "value": "X"}, {"measurement": "ABT-263 solubility", "setting": "[3]; C8LL (Capmul PG-8/Labrafil M 1944 CS/Labrasol) 50:40:10 by weight", "value": "X"}, {"measurement": "ABT-263 solubility", "setting": "[3]; C8LL (Capmul PG-8/Labrafil M 1944 CS/Labrasol) 60:30:10 by weight", "value": "X"}, {"measurement": "ABT-263 solubility", "setting": "[3]; C8LT (Capmul PG-8/Labrafil M 1944 CS/Tween 80) 30:40:30 by weight", "value": "X"}, {"measurement": "ABT-263 solubility", "setting": "[3]; C8LT (Capmul PG-8/Labrafil M 1944 CS/Tween 80) 35:40:25 by weight", "value": "X"}, {"measurement": "ABT-263 solubility", "setting": "[3]; C8LT (Capmul PG-8/Labrafil M 1944 CS/Tween 80) 40:30:30 by weight", "value": "X"}, {"measurement": "ABT-263 solubility", "setting": "[3]; C8LT (Capmul PG-8/Labrafil M 1944 CS/Tween 80) 45:30:25 by weight", "value": "X"}]}
